Assay results reported in paper PMC6403271, “Characterization, mechanism of action and optimization of activity of a novel peptide-peptoid hybrid against bacterial pathogens involved in canine skin infections” (Scientific Reports, 2019).
Square brackets hold non-standard residues; d marks the D form. Peptide text beside a SMILES is read from it. N(1-naphthylmethyl)Gly = O=C(O)CNCc1cccc2ccccc12; 1Nal = N[C@@H](Cc1cccc2ccccc12)C(=O)O; 2Nal = N[C@@H](Cc1ccc2ccccc2c1)C(=O)O; d1Nal = N[C@H](Cc1cccc2ccccc12)C(=O)O; d2Nal = N[C@H](Cc1ccc2ccccc2c1)C(=O)O; Nle = CCCC[C@H](N)C(=O)O; Nphe = O=C(O)CNCc1ccccc1; NBuGly = CCCCNCC(=O)O; Nlys = NCCCCNCC(=O)O

Legend:
[1] = assay type: cell-based, human; details: human
Description: (§1) Briefly, two-fold serial dilutions (2.35 to 150 μM) of compounds in phosphate buffer saline (PBS) were mixed with equal volume of 0.5% v/v suspension of fresh human red blood cells (RBC) in the same buffer. After 1 h incubation at 37 °C, plates were centrifuged and aliquots of the supernatants were transferred to clear 96-well plates. Absorbance at 414 nm was measured and normalized using a negative (PBS, 0%) and a positive (melittin, 100%) control. The EC10 and EC50 are concentrations at which 10% and 50% of RBC were lysed, respectively, as interpolated graphically by the y-axis intersection of the plotted data.

human red blood cells = assay type: cell-based; details: for EC50: red cells of human, 1 h
Description: as §1

MRSP C22963 = assay type: cell-based, Staphylococcus pseudintermedius; details: 18 h
Description: (§2) Activity of B1 was tested on 50P. aeruginosa isolates and 57S. pseudintermedius isolates (including 7 MRSP) that had been isolated in the diagnostic laboratory Sund Vet Diagnostik (University of Copenhagen) from various infections in dogs between 2009 and 2011. Representative MRSP (C22963), MSSA, and P. aeruginosa (26314) were used for testing the first set of B1 analogues.
(§3) MIC determination was performed by broth microdilution according to the Clinical and Laboratory Standard Institute (CLSI, M31-A3, 2008)[62]. In brief, each bacterial strain was diluted to concentration of 5 × 10^5 CFU/mL in Mueller Hinton broth II (MHB II) media (Oxoid) and added to a two-fold serial dilution of peptides and peptide-peptoid hybrids concentrations ranging from 1 to 64 µg/ml in 96-well plates (Nunc Internationals, Rochester, NY). The MICs were determined as a lowest concentration showing no visible growth after incubation for 18 hours at 37 °C. Experiments were performed in triplicates on two different days.

P. aeruginosa (26314) = assay type: cell-based, Pseudomonas aeruginosa; details: 26314, 18 h
Description: Activity of B1 was tested on […]. aeruginosa isolates and […]. pseudintermedius isolates (including 7 MRSP) that had been isolated in the diagnostic laboratory Sund Vet Diagnostik (University of Copenhagen) from various infections in dogs between 2009 and 2011. Representative […], and P. aeruginosa (26314) were used for testing the first set of B1 analogues. For antibacterial spectrum the following strains were used: Corynebacterium auriscanis, 31551, (54 C6, dog, ear, 2013); Enterococcus faecalis, 27404, (17 C7, dog, wound, 2011); Enterococcus faecium, 30951, (24 C1, dog, ear, 2013); Streptococcus canis, 26740-1, (14 H1, dog, ear, 2010); Staphylococcus aureus, 27266, (16 G9, dog, skin, 2010); Staphylococcus aureus, 27266, (16 G9, dog, skin, 2010); Staphylococcus pseudintermedius 22963, (3 B9, dog, 2007). Acinetobacter baumannii, 27065, (16 D1, dog, wound, 2010); E. coli, 30235, 23 A6, dog, wound, 2012; Klebsiella pneumoniae, 26233, (11 H5, dog, wound, 2010); Pasteurella canis, 31096, (24 C8, dog, skin, 2013); Proteus mirabilis, 25178, (9 A4, dog, ear, 2009); Pseudomonas aeruginosa 26314, 12 C5, dog, urine, 2010). MIC determination was performed by broth microdilution according to the Clinical and Laboratory Standard Institute (CLSI, […]-A3, 2008)[62]. In brief, each bacterial strain was diluted to concentration of 5 × 10^5 CFU/mL in Mueller Hinton broth II (MHB II) media (Oxoid) and added to a two-fold serial dilution of peptides and peptide-peptoid hybrids concentrations ranging from 1 to 64 μg/ml in 96-well plates (Nunc Internationals, Rochester, NY). The MICs were determined as a lowest concentration showing no visible growth after incubation for 18 hours at 37 °C. Experiments were performed in triplicates on two different days.

MSSA (ATCC 29213) = assay type: cell-based, Staphylococcus aureus; details: ATCC 29213, 18 h
Description: as §2, §3

Row | EC50 (human red blood cells) [µM] | SMILES | hemolysis at 1 h, 150 µM [1] [%] | Haemolysis EC10 (human red blood cells) [µM] | Minimum Inhibitory Concentration MRSP C22963 (MRSP C22963) [µg/mL] | Minimum Inhibitory Concentration P. aeruginosa (26314) (P. aeruginosa (26314)) [µg/mL] | Minimum Inhibitory Concentration MSSA (ATCC 29213) (MSSA (ATCC 29213)) [µg/mL]
1 | 41 | CCCC[C@H](NC(=O)[C@H](CCCCN)NC(=O)[C@H](CCCCN)NC(=O)[C@@H](N)CCCCN)C(=O)N[C@@H](Cc1cccc2ccccc12)C(=O)N[C@@H](Cc1ccccc1)C(=O)N[C@@H](Cc1cccc2ccccc12)C(N)=O [Compound 24, Lys-Lys-Lys-Nle-(1-Nal)Ala-Phe-(1-Nal)Ala] (H-KKK[Nle][1Nal]F[1Nal]-NH2; N-terminus assumed) | 60 | 3 | 16 to 32 | 16 | >64
2 | 58 | CC(C)C[C@H](NC(=O)[C@H](CCCCN)NC(=O)[C@@H](N)CCCCN)C(=O)N[C@@H](CCCCN)C(=O)N[C@@H](Cc1cccc2ccccc12)C(=O)N[C@@H](Cc1ccccc1)C(=O)N[C@@H](Cc1cccc2ccccc12)C(N)=O [Compound 6, Lys-Lys-Leu-Lys-(1-Nal)Ala-Phe-(1-Nal)Ala] (H-KKLK[1Nal]F[1Nal]-NH2; N-terminus assumed) | 96 | 5 | 8 | 8 | 32
3 |  | CCCCN(CC(=O)N[C@@H](CCCCN)C(=O)N[C@@H](CCCCN)C(=O)N[C@@H](CCCCN)C(N)=O)C(=O)CN(Cc1cccc2ccccc12)C(=O)CN(Cc1ccccc1)C(=O)CNCc1cccc2ccccc12 [Compound 4, (N1-Nal)Gly-(NPhe)Gly-(N1-Nal)Gly-(NBu)Gly-Lys-Lys-Lys] (H-[N(1-naphthylmethyl)Gly][Nphe][N(1-naphthylmethyl)Gly][NBuGly]KKK-NH2; N-terminus assumed) | 24 | 54 | 8 | 32 | 16
4 | 118 | CC(C)C[C@@H](NC(=O)[C@H](CCCCN)NC(=O)[C@H](CCCCN)NC(=O)[C@@H](N)CCCCN)C(=O)N[C@H](Cc1ccc2ccccc2c1)C(=O)N[C@H](Cc1ccccc1)C(=O)N[C@H](Cc1ccc2ccccc2c1)C(N)=O [Compound 16, Lys-Lys-Lys-leu-(2-Nal)ala-phe-(2-Nal)ala] (H-KKK[dL][d2Nal][dF][d2Nal]-NH2; N-terminus assumed) | 60 | 18 | 2 to 4 | 32 | 8 to 16
5 | 128 | CC(C)C[C@@H](NC(=O)[C@H](CCCCN)NC(=O)[C@@H](N)CCCCN)C(=O)N[C@@H](CCCCN)C(=O)N[C@H](Cc1cccc2ccccc12)C(=O)N[C@H](Cc1ccccc1)C(=O)N[C@H](Cc1cccc2ccccc12)C(N)=O [Compound 14, Lys-Lys-leu-Lys-(1-Nal)ala-phe-(1-Nal)ala] (H-KK[dL]K[d1Nal][dF][d1Nal]-NH2; N-terminus assumed) | 58 | 28 | 4 to 8 | 16 to 32 | 16
6 | 40 | CC(C)C[C@@H](NC(=O)[C@H](CCCCN)NC(=O)[C@H](CCCCN)NC(=O)[C@@H](N)CCCCN)C(=O)N[C@H](Cc1cccc2ccccc12)C(=O)N[C@H](Cc1ccccc1)C(=O)N[C@H](Cc1cccc2ccccc12)C(N)=O [Compound 15, Lys-Lys-Lys-leu-(1-Nal)ala-phe-(1-Nal)ala] (H-KKK[dL][d1Nal][dF][d1Nal]-NH2; N-terminus assumed) | 88 | 8 | 2 | 8 | 8
7 |  | CC(C)C[C@H](NC(=O)[C@H](Cc1ccc2ccccc2c1)NC(=O)[C@H](Cc1ccccc1)NC(=O)[C@@H](N)Cc1ccc2ccccc2c1)C(=O)N[C@@H](CCCCN)C(=O)N[C@@H](CCCCN)C(=O)N[C@@H](CCCCN)C(N)=O [Compound 13, (2-Nal)Ala-Phe-(2-Nal)Ala-Leu-Lys-Lys-Lys] (H-[2Nal]F[2Nal]LKKK-NH2; N-terminus assumed) | 15 | 110 | 8 | >64 | 32
8 |  | CC(C)C[C@@H](NC(=O)[C@H](CCCCN)NC(=O)[C@@H](N)CCCCN)C(=O)N[C@@H](CCCCN)C(=O)N[C@H](Cc1ccc2ccccc2c1)C(=O)N[C@H](Cc1ccccc1)C(=O)N[C@H](Cc1ccc2ccccc2c1)C(N)=O [Compound 17, Lys-Lys-leu-Lys-(2-Nal)ala-phe-(2-Nal)ala] (H-KK[dL]K[d2Nal][dF][d2Nal]-NH2; N-terminus assumed) | 40 | 8 | 8 | 32 | 16
9 |  | CC(C)C[C@H](NC(=O)[C@H](CCCCN)NC(=O)[C@H](CCCCN)NC(=O)[C@@H](N)CCCCN)C(=O)N[C@@H](Cc1ccc2ccccc2c1)C(=O)N[C@@H](Cc1ccccc1)C(=O)N[C@@H](Cc1ccc2ccccc2c1)C(N)=O [Compound 9, Lys-Lys-Lys-Leu-(2-Nal)Ala-Phe-(2-Nal)Ala] (H-KKKL[2Nal]F[2Nal]-NH2; N-terminus assumed) | 39 | 46 | 8 | 16 | 16
10 |  | CC(C)C[C@H](NC(=O)[C@H](CCCCN)NC(=O)[C@@H](N)CCCCN)C(=O)N[C@@H](CCCCN)C(=O)N[C@@H](Cc1ccc2ccccc2c1)C(=O)N[C@@H](Cc1ccccc1)C(=O)N[C@@H](Cc1ccc2ccccc2c1)C(N)=O [Compound 8, Lys-Lys-Leu-Lys-(2-Nal)Ala-Phe-(2-Nal)Ala] (H-KKLK[2Nal]F[2Nal]-NH2; N-terminus assumed) | 34 | 56 | 8 | 32 | 16
11 |  | CC(C)C[C@H](NC(=O)CN(CCCCN)C(=O)CN(CCCCN)C(=O)CNCCCCN)C(=O)N[C@@H](Cc1ccc2ccccc2c1)C(=O)N[C@@H](Cc1ccccc1)C(=O)N[C@@H](Cc1ccc2ccccc2c1)C(N)=O [Compound 29, NLys-NLys-NLys-Leu-(2-Nal)Ala-Phe-(2-Nal)Ala] (H-[Nlys][Nlys][Nlys]L[2Nal]F[2Nal]-NH2; N-terminus assumed) | 46 | 9 | 4 to 8 | 32 | 16 to 32
12 |  | CC(C)C[C@@H](NC(=O)[C@H](CCCCN)NC(=O)[C@@H](Cc1ccc2ccccc2c1)NC(=O)[C@@H](Cc1ccccc1)NC(=O)[C@H](N)Cc1ccc2ccccc2c1)C(=O)N[C@@H](CCCCN)C(=O)N[C@@H](CCCCN)C(N)=O [Compound 18, (2-Nal)ala-phe-(2-Nal)ala-Lys-leu-Lys-Lys] (H-[d2Nal][dF][d2Nal]K[dL]KK-NH2; N-terminus assumed) | < 8 |  | 16 | >64 | 32 to 64
